The text below walks through data of patent US9686985B2, “Fungicide N-cycloalkyl-N-bicyclicmethylene-carboxamide derivatives” (BAYER INTELLECTUAL PROPERTY GMBH, priority 2012, dated 2017).

The subject of test [1] is Botrytis cinerea. In words: Example S: in vivo preventive test on Botrytis cinerea (grey mould). The note with it: table S; 500 ppm; gherkin plants; grading 4 to 5 days after contamination. On the procedure:
Example S: In Vivo Preventive Test on Botrytis cinerea (Grey Mould) […] Gherkin plants (“Vert petit de Paris” variety), sown in starter cups on a 50/50 peat soil pozzolana substrate and grown at 24° C., are treated at the Z11 cotyledon stage by spraying with the active ingredient prepared as described above. Plants, used as controls, are treated with the mixture of acetone/tween/DMSO/water not containing the active material. After 24 hours, the plants are contaminated by spraying the cotyledons with an aqueous suspension of cryopreserved Botrytis cinerea spores (50 000 spores per mL). The spores are suspended in a nutrient solution composed of 10 g/L of PDB, 50 g/L of D-Fructose, 2 g/L of NH4NO3 and 1 g/L of KH2PO4. The contaminated gherkin plants are incubated at 17° C. and at 90% relative humidity. Grading (% of efficacy) is carried out 4 to 5 days after the contamination, in comparison with the control plants.

In test [2] the test system is Alternaria solani. In words: Example C: in vivo preventive test on Alternaria solani (tomato). As for the experimental part: Example C: In Vivo Preventive Test on Alternaria solani (Tomato) [table] To produce a suitable preparation of active compound, 1 part by weight of active compound is mixed with the stated amounts of solvent and emulsifier, and the concentrate is diluted with water to the desired concentration. To test for preventive activity, young plants are sprayed with the preparation of active compound at the stated rate of application. One day after this treatment, the plants are inoculated with an aqueous spore suspension of Alternaria solani. The plants remain for one day in an incubation cabinet at approximately 22° C. and a relative atmospheric humidity of 100%. Then the plants are placed in an incubation cabinet at approximately 20° C. and a relative atmospheric humidity of 96%.

Where [3] appears, read: table C1, 100 ppm, evaluated 7 days after inoculation.

With `CC(C1CCCc2ccccc21)N(C(=O)c1c(C(F)F)nn(C)c1F)C1CC1` (stereo not drawn) [I.23], the Efficacy is 85% in test [1]; 90% in test [2] (setting [3]); 90% in test [2] (table C2, dose 100 ppm, comparison with WO-2010/086311 compound); “at least 90%” in test [2] (table C2, dose 100 ppm, comparison with WO-2010/086311 compound, listed as 1.23).
Consider `Cn1nc(C(F)F)c(C(=O)N(CC2CC(C)(C)Oc3ccccc32)C2CC2)c1F` (stereo not drawn) [I.33], for which the Efficacy in test [1] was determined as 80%; in test [2] (setting [3]) it was 100%.
